For test [1], the target named is human activated kallikrein enzyme (Homo sapiens, UniProt P03952). The experiment in a line: Inhibition of human activated plasma kallikrein, fluorogenic PFR-AMC substrate, 500 pM enzyme format. The test is classed as biochemical. To be noted: 500 pM activated kallikrein; 300 μM PFR-AMC; 30 min preincubation; 10 min room temperature; pH 7.5; read-out: Primary Dose Response Assay: Average EC50. An outline of the steps: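 Using fluorogenic PFR-AMC at 300 μM, cleavage by 500 pM human activated kallikrein ran 10 min at room temperature, read at 460 nm emission (380 nm excitation). Enzyme and compounds were first preincubated 30 min in 20 mM Tris pH 7.5, 150 mM NaCl, 1 mM EDTA, 0.1% PEG-400, 0.1% Triton X-100.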

The next test deals with T1, plasma kallikrein (Homo sapiens, UniProt P03952).
T1 construct: PFR-AMC substrate
The experiment in a line: Neat Human Plasma Assay (Fluorogenic Peptide), contact pathway-activated (FXIIa) plasma. It is filed as biochemical. To be noted: human citrated plasma 78% final; 10 nM human FXIIa; PFR-AMC substrate; 5 minutes; room temperature. On the procedure: To analyze inhibition of plasma kallikrein in an ex vivo setting, the potency of compounds was measure in contact pathway-activated plasma assays. In a fluorogenic peptide substrate assay, test compounds dissolved in DMSO were added to sodium citrate collected human or rat plasma in a 96-well microplate. Alternatively, citrated plasma was collected from rats administered the compounds orally or by IV. 10 nM of human FXIIa (Enzyme Research Laboratories) diluted in PKa buffer (20 mM Tris-HCl, pH 7.5, 150 mM NaCl, 1 mM EDTA, 0.1% PEG-8000, and 0.1% Triton X-100) was added to the plasma, followed by the […] of the profluorescent, synthetic plasma kallikrein substrate PFR-AMC (also diluted in PKa buffer). Final plasma concentration in the reaction was 78%. Fluorescence was immediately monitored by excitation/emission wavelengths of 360 nm/480 nm respectively over a period of 5 minutes in a microplate reader. The resulting linear increase in fluorescence emission (reflecting PKa proteolysis of PFR-AMC substrate) was fit to extract a proteolytic rate (fluorescent units over time), and this rate was subsequently plotted against compound inhibitor concentration. Resulting plots were fit to a standard 4-parameter IC50/IC90 equation to determine min/max values, IC50/90, and slope. All experimental steps were performed at room temperature.

Usually EC50 stands for the concentration needed to bring the measured effect to its halfway point. As a reminder, the IC90 is the concentration at which the effect reaches the 90% level. Higher therefore signals a need for much substance.

Where a name gives a salt, the structure may show the parent alone.

Chain of human activated kallikrein enzyme (P03952 391-638 limits assumed): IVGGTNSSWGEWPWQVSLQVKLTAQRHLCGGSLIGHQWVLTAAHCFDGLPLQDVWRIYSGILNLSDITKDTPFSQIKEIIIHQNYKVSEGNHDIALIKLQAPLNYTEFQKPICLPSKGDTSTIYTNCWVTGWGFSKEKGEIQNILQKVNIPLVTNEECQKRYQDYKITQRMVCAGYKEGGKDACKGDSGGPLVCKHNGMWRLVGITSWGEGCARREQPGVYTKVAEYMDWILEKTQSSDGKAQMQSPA
Chain of human activated kallikrein enzyme (P03952 20-390 partner limits assumed): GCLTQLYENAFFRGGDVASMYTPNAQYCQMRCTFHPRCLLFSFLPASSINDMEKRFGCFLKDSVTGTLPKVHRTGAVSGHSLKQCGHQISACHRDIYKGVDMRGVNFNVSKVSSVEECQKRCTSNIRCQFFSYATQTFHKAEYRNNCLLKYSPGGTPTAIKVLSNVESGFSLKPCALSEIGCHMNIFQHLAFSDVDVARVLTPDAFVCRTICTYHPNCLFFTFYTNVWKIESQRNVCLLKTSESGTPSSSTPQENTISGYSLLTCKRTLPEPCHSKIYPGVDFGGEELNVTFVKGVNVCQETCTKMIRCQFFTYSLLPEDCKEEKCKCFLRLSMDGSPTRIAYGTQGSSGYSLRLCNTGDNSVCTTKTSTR
T1 sequence (P03952 20-638): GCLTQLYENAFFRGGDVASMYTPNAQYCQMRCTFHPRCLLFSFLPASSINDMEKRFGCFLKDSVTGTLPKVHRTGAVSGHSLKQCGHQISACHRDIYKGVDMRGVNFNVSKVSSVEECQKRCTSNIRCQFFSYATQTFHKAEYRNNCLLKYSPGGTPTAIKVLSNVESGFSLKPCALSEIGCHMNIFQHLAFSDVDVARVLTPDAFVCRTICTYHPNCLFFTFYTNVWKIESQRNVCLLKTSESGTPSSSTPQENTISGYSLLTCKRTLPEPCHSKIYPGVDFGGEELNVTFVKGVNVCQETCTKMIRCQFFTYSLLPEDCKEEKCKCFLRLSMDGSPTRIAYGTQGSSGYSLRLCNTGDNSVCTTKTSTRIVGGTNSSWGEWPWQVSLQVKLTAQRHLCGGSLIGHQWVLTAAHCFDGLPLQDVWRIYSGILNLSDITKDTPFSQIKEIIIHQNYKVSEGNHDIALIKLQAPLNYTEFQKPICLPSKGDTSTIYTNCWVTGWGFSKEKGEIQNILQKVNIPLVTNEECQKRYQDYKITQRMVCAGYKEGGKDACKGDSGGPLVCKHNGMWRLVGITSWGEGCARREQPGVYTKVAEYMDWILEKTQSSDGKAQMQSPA

Take `Cc1cc2c(N)nccc2c(C)c1CNC(=O)c1cnn(Cc2ccc(Cn3ccccc3=O)cc2)c1` [Example 192, N-((1-amino-5,7-dimethylisoquinolin-6-yl)methyl)-1-(4-((2-oxopyridin-1(2H)-y1)methyl)benzyl)-1H-pyrazole-4-carboxamide]: the EC50 in test [1] is less than 1 nM. The IC90 at plasma kallikrein was no more than 1000 nM.

On to `Cc1cc2c(N)nccc2c(C)c1CNc1cc(NCc2cn3cc(Cl)ccc3n2)ncn1` [Example 313, N^4-((1-amino-5,7-dimethylisoquinolin-6-yl)methyl)-N^6-((6-chloroimidazo[1,2-a]pyridin-2-yl)methyl)pyrimidine-4,6-diamine, formic acid salt], for which the EC50 in test [1] is less than 1 nM. For the same compound, the IC90 against plasma kallikrein was greater than 5000 nM.

For `Cc1cc2c(N)nccc2c(C)c1CNc1nccnc1NCc1cn2cc(C3CC3)ccc2n1` [Example 240], in test [1], the EC50 was in the range of 1 to 10 nM. Further, the IC90 at plasma kallikrein was 1000 to 5000 nM.

Consider `Cc1cc2c(N)nccc2c(C)c1CNc1cc2c(cn1)cnn2Cc1cn2cc(C3CC3)ccc2n1` [Example 268, 6-(((1-((6-cyclopropylimidazo[1,2-a]pyridin-2-yl)methyl)-1H-pyrazolo[4,3-c]pyridin-6-yl)amino)methyl)-5,7-dimethylisoquinolin-1-amine], for which the EC50 in test [1] is less than 1 nM. This compound displayed an IC90 at plasma kallikrein of no more than 1000 nM.

As to `Cc1cc2c(N)nccc2c(C)c1CNc1cc(NCc2cc3cc(C4CC4)cnc3s2)ncn1` [Example 243, N4-((1-amino-5,7-dimethylisoquinolin-6-yl)methyl)-N6-((5-cyclopropylthieno[2,3-b]pyridin-2-yl)methyl)pyrimidine-4,6-diamine], the EC50 in test [1] was less than 1 nM. Further, the IC90 at plasma kallikrein is no more than 1000 nM.

Take `Cc1ccc2cc(Cn3ccc4nnc(NCc5c(C)cc6c(N)nccc6c5C)cc43)ccc2n1` [Example 515, 5,7-dimethyl-6-(((5-((2-methylquinolin-6-yl)methyl)-5H-pyrrolo[3,2-c]pyridazin-3-yl)amino)methyl)isoquinolin-1-amine]: the EC50 in test [1] is less than 1 nM. The same compound gave an IC90 at plasma kallikrein of 1000 to 5000 nM.

Take `Cc1cc2c(N)nccc2c(C)c1CNc1cc(OCc2ccc(Cn3cccn3)cc2)ncn1` [Example 251, 6-(((6-((4-((1H-pyrazol-1-yl)methyl)benzyl)oxy)pyrimidin-4-yl)amino)methyl)-5,7-dimethylisoquinolin-1-amine]: the EC50 in test [1] is less than 1 nM. At plasma kallikrein, this compound gave an IC90 greater than 5000 nM.

Turning to `Cc1cc2c(N)nccc2c(C)c1CNc1cc(OCc2cc3cc(C4CC4)ccn3n2)ncn1` [Example 400, 6-(((6-((5-cyclopropylpyrazolo[1,5-a]pyridin-2-yl)methoxy)pyrimidin-4-yl)amino)methyl)-5,7-dimethylisoquinolin-1-amine], the EC50 in test [1] lay in the range of 1 to 10 nM. In addition, the IC90 against plasma kallikrein is greater than 5000 nM.

For the compound `Cc1cc2c(N)nccc2c(C)c1CNc1cc2c(cn1)nnn2Cc1cn2cc(C3CC3)ccc2n1` [Example 501, 6-(((1-((6-cyclopropylimidazo[1,2-a]pyridin-2-yl)methyl)-1H-[1,2,3]triazolo[4,5-c]pyridin-6-yl)amino)methyl)-5,7-dimethylisoquinolin-1-amine], in test [1], the EC50 was less than 1 nM. The compound also showed an IC90 at plasma kallikrein of no more than 1000 nM.

Regarding `Cc1cc2c(N)nccc2c(C)c1CNc1cc(OCc2ccc(Cn3cccn3)cc2)cnn1` [Example 432, 6-(((5-((4-((1H-pyrazol-1-yl)methyl)benzyl)oxy)pyridazin-3-yl)amino)methyl)-5,7-dimethylisoquinolin-1-amine], in test [1], the EC50 was less than 1 nM. The IC90 at plasma kallikrein was 1000 to 5000 nM.

With `Cc1cc2c(N)nccc2c(C)c1CNC(=O)c1cnn(Cc2ccc3ncc(Cl)cc3c2)c1` [Example 89, N-((1-amino-5,7-dimethylisoquinolin-6-yl)methyl)-1-((3-chloroquinolin-6-yl)methyl)-1H-pyrazole-4-carboxamide], the EC50 in test [1] is less than 1 nM. This compound yielded a 90% effect concentration (IC90) against plasma kallikrein of no more than 1000 nM.

As for “N-((1-amino-5,7-dimethylisoquinolin-6-yl)methyl)-1-(4-((2-oxopyridin-1(2H)-y1)methyl)benzyl)-1H-1,2,3-triazole-4-carboxamide [Example 186]”, the EC50 in test [1] is less than 1 nM. The compound further had an IC90 against plasma kallikrein of no more than 1000 nM.

For the compound `Cc1c(CNc2cc(OCc3cn4cc(C5CC5)ccc4n3)ncn2)c(C2(C)CC2)cc2c(N)nccc12` [Example 390, 6-(((6-((6-cyclopropylimidazo[1,2-a]pyridin-2-yl)methoxy)pyrimidin-4-yl)amino)methyl)-5-methyl-7-(1-methylcyclopropyl)isoquinolin-1-amine], in test [1], the EC50 is less than 1 nM. In addition, the IC90 at plasma kallikrein was greater than 5000 nM.

Regarding `Cc1cc2c(N)nccc2c(C)c1CNC(=O)c1cn(Cc2ccc(N3CCCC3)nc2)nc1C(F)(F)F` [Example 194, N-((1-amino-5,7-dimethylisoquinolin-6-yl)methyl)-1-((6-(pyrrolidin-1-yl)pyridin-3-yl)methyl)-3-(trifluoromethyl)-1H-pyrazole-4-carboxamide], in test [1], the EC50 is 1 to 10 nM. In addition, the IC90 on plasma kallikrein was greater than 5000 nM.

`Cc1cc2c(N)nccc2c(C)c1CNc1cc(OCc2ccc3ncc(C4CC4)cc3c2)ccn1` [Example 239, 6-(((4-((3-cyclopropylquinolin-6-yl)methoxy)pyridin-2-yl)amino)methyl)-5,7-dimethylisoquinolin-1-amine]: the EC50 in test [1] was in the range of 1 to 10 nM. Also, the IC90 against plasma kallikrein was greater than 5000 nM.

`Cc1cc2c(N)nccc2c(C)c1CNc1cc(OCc2cc3cc(C4CC4)cc(N4CCOC4=O)n3n2)ncn1` [Example 256, 3-(2-(((6-(((1-amino-5,7-dimethylisoquinolin-6-yl)methyl)amino)pyrimidin-4-yl)oxy)methyl)-5-cyclopropylpyrazolo[1,5-a]pyridin-7-yl)oxazolidin-2-one]: the EC50 in test [1] was less than 1 nM. Moreover, the IC90 against plasma kallikrein was no more than 1000 nM.

On to `Cc1cc2c(N)nccc2c(C)c1CNc1cc2c(cn1)ncn2Cc1cn2cc(C3CC3)ccc2n1` [Example 499, 6-(((1-((6-cyclopropylimidazo[1,2-a]pyridin-2-yl)methyl)-1H-imidazo[4,5-c]pyridin-6-yl)amino)methyl)-5,7-dimethylisoquinolin-1-amine], for which the EC50 in test [1] is less than 1 nM. This compound also returned an IC90 against plasma kallikrein of no more than 1000 nM.

`Cc1cc2c(N)nccc2c(C)c1CNc1cc(NCc2cn3cc(C4CC4)ccc3n2)ncn1` [Example 331, N^4-((1-amino-5,7-dimethylisoquinolin-6-yl)methyl)-N^6-((6-cyclopropylimidazo[1,2-a]pyridin-2-yl)methyl)pyrimidine-4,6-diamine]: the 50% effective concentration (EC50) in test [1] is less than 1 nM. For the same compound, at plasma kallikrein, the IC90 is 1000 to 5000 nM.

For the compound `Cc1cc2c(N)nccc2c(C)c1CNc1cc(OCc2cn3cc(C4CC4)cc(C4(F)COC4)c3n2)ncn1` [Example 272, 6-(((6-((6-cyclopropyl-8-(3-fluorooxetan-3-yl)imidazo[1,2-a]pyridin-2-yl)methoxy)pyrimidin-4-yl)amino)methyl)-5,7-dimethylisoquinolin-1-amine], in test [1], the EC50 is less than 1 nM. On plasma kallikrein, this compound registered an IC90 of 1000 to 5000 nM.

In the case of `Cc1cc2c(N)nccc2c(C)c1CNc1cc(OCc2cn3cc(C4CC4)cc(N4CCCC4=O)c3n2)ncn1` [Example 259, 1-(2-(((6-(((1-amino-5,7-dimethylisoquinolin-6-yl)methyl)amino)pyrimidin-4-yl)oxy)methyl)-6-cyclopropylimidazo[1,2-a]pyridin-8-yl)pyrrolidin-2-one], the EC50 in test [1] is less than 1 nM. Besides, the IC90 against plasma kallikrein is no more than 1000 nM.

As for `Cc1ccc2cc(COc3cc(NCc4c(C)cc5c(N)nccc5c4C)ncn3)ccc2n1` [Example 371, 5,7-dimethyl-6-(((6-((2-methylquinolin-6-yl)methoxy)pyrimidin-4-yl)amino)methyl)isoquinolin-1-amine], in test [1], the half-maximal effective concentration (EC50) is 1 to 10 nM. On plasma kallikrein, this compound registered a concentration for an effect of 90% (IC90) of 1000 to 5000 nM.

In the case of `Cc1cc2c(N)nccc2c(C)c1CNc1cc(SCc2cn3cc(C4CC4)ccc3n2)ncn1` [Example 290, 6-(((6-(((6-cyclopropylimidazo[1,2-a]pyridin-2-yl)methyl)thio)pyrimidin-4-yl)amino)methyl)-5,7-dimethylisoquinolin-1-amine], the EC50 in test [1] was less than 1 nM. The IC90 at plasma kallikrein fell in the range of 1000 to 5000 nM.

`Cc1cc2c(N)nccc2c(C)c1CNc1nccc2nn(Cc3cn4cc(C5CC5)cnc4n3)cc12` [Example 392, 6-(((2-((6-cyclopropylimidazo[1,2-a]pyrimidin-2-yl)methyl)-2H-pyrazolo[4,3-c]pyridin-4-yl)amino)methyl)-5,7-dimethylisoquinolin-1-amine]: in test [1], the EC50 was less than 1 nM. For the same compound, the IC90 on plasma kallikrein was no more than 1000 nM.

Turning to `Cc1cc2c(N)nccc2c(C)c1CNc1cc(OC(C)c2ccc(Cn3cccn3)cc2)cnn1` (single isomer, unassigned) [Example 276, (R*)-6-(((5-(1-(4-((1H-pyrazol-1-yl)methyl)phenyl)ethoxy)pyridazin-3-yl)amino)methyl)-5,7-dimethylisoquinolin-1-amine], the EC50 in test [1] is less than 1 nM. At plasma kallikrein, the IC90 is no more than 1000 nM.

The record behind these values is patent US20260374754A1, “N-((ISOQUINOLIN-6-YL)METHYL)-1H-PYRAZOLE-4-CARBOXAMIDE DERIVATIVES AS PLASMA KALLIKREIN INHIBITORS FOR THE TREATMENT OF HEREDITARY ANGIODEMA” (Takeda Pharmaceutical Company Limited, priority 2022, published 2026).
